The values below come from patent US20080201790A1, “Method and product for regulating cell responsiveness to external signals” (priority 1993, published 2008).

Entries after “also recorded” stand apart in the source; their conditions may differ.

One test relates to 98 kD PC12 cell MEKK. Put plainly: MEKK immunoprecipitate kinase assay from PC12 cells with kinase inactive MEK-1. The format is cell-based. The following applies: for MEKK activity after stimulation (in words): serum starved PC12 cells, 5 minutes. How it is done:
Reactions were stopped by the addition of 2×SDS sample buffer (20 μl). The samples were boiled for 3 minutes and subjected to SDS-PAGE and autoradiography. Raf-B was immunoprecipitated from the same untreated and treated PC12 cell lysates as above with an antiserum to a COOH-terminal peptide of Raf-B (Santa Cruz Biotechnology, Inc.) and assayed similarly. Raf-1 was immunoprecipitated with an antiserum to the 12 COOH-terminal amino acids of Raf-1 (Santa Cruz Biotechnology, Inc.).
Data represent the relative magnitude of the response for each timepoint as quantitated by phosphorimager analysis of radioactive gels from a typical experiment.
Expression of N^17Ras was induced in PC12 clones stably transfected with the N^17Ras gene by the addition of dexamethasone to the starvation media. […] PC12 cell clones stably transfected with the N^17Ras gene are less responsive to EGF-mediated activation of MEKK activity than are wild type PC12 cells. […] MEKK activity in immunoprecipitates or column fractions was dissociable from that of EGF-stimulated c-Raf-1 and Raf-B activities.
To determine whether the growth factor-mediated activation of 98 kD PC12 cell MEKK was inhibited by PKA, forskolin was used to elevate intracellular cAMP and activate PKA. […] Raf-B activity was also assayed from the same cell lysates to test whether its regulation differed from that of MEKK. Raf-B was immunoprecipitated from the same cell lysates as described above and assayed for its ability to phosphorylate MEK-1 as described above.

In a further test the test system is Raf-B. Put plainly: Raf-B immunoprecipitate kinase assay from PC12 cells with kinase inactive MEK-1. The format is cell-based. The following applies: PC12 cells, EGF 30 ng/ml 5 minutes.
A further test has as its system L929 cells. Put plainly: Propidium iodide staining of L929 clones with inducible N17 Ras or V12 Ras. The format is cell-based, murine. Conditions: IPTG-induced expression. As for the experimental part:
Ras expression was induced with 5 mM IPTG for 10 hours and cells were subsequently treated with 5 ng/ml TNFα in the presence or absence of 0.5 ng/ml bFGF for 16 hours. Cells were fixed and stained with propidium iodide. The percentage of apoptotic cells was calculated. Solid bars represent cells induced with IPTG; hatched bars, induced with IPTG and treated with TNFα; checked bars, induced with IPTG and treated with TNFα and bFGF.
Cell lines and culture. […] JNK activity was measured using a solid state kinase assay in which glutathione S-transferase-c-Jun (1-79) (GST-JUN) cound to glutathione-Sepharose 4B beads was used to affinity purify JNK and then JNK activity was measured in an in vitro kinase assay using the sepharose bound GST-Jun as a substrate (Hibi, M., et al. (1993) Genes & Development 7:2135-2148). […] MAPK Assay MAPK activity was measured exactly as described previously (Gardner, A. M., et al. (1994) Meth. Enzymol. 238:258-270) with the exception that MonoQ FPLC fractionation was replaced by step elution from a DEAE-Sephacel column using 0.5 M NaCl in loading buffer. […]

In a further test the test system is JNK. Put plainly: JNK solid state kinase assay (GST-Jun) in L929 cells. The format is cell-based, murine. The following applies: L929 cells. How it is done: (§1) In panel A cells were treated for 10 minutes with the indicated concentration of TNFα. JNK activation was measured using a solid phase kinase assay resulting in phosphorylation of GST-Jun. In […] the time course of MAPK activation is shown. MAPK was isolated from cell lysates on DEAE sephacel columns and MAPK activation was measured by phosphorylation of the EGFR peptide substrate. Panel C depicts the concentration curve of MAPK activation by TNFα. Cells were treated with the indicated concentration of TNFα and MAPK was assayed.
(§2) Cell lines and culture. L929 cells (ATCC CCL1 were maintained in Dulbecco's modified Eagle's medium with 5% newborn calf serum and 5% bovine calf serum (BCS) supplemented with 100 ug/ml streptomycin and 100 U/ml penicillin. The cells were grown in 10 cm dishes at 37° C. in 7.5% CO2. Cells were made quiescent where indicated by incubation in Dulbecco's modified Eagle's medium and 0.1% bovine serum albumin for 24 h. Recombinant murine TNFα and recombinant human bFGF (147aa) were from R&D Systems, Minneapolis, Minn. Cells were pretreated where indicated with the MEK-1 inhibitor PD#098059 (Parke-Davis Pharmaceutical Corp. Ann Arbor, Mich.) for 1 h at 37° C. Cells were stimulated by incubation with the indicated cytokine or growth factor for various times at 37° C. Stimulation was stopped by rinsing the plates twice with ice cold phosphate buffered saline (PBS) and lysing the cells in the appropriate lysis buffer. Cells were scraped from the plates and nuclei were pelleted for 10 min at 14,000 RPM in a microcentrifuge. JNK assay. JNK activity was measured using a solid state kinase assay in which glutathione S-transferase-c-Jun (1-79) (GST-JUN) cound to glutathione-Sepharose 4B beads was used to affinity purify JNK and then JNK activity was measured in an in vitro kinase assay using the sepharose bound GST-Jun as a substrate (Hibi, M., et al. (1993) Genes & Development 7:2135-2148). Stimulated or unstimulated cells were lysed in 0.5% Nonidet P-40, 20 mM HEPES pH 7.2, 100 mM NaCl, 2 mM dithiothreitol, 1 mM EDTA, 1.0 mM phenylmethylsulfonylfluoride, 1 μg/ml aprotinin and the nuclei pelleted. Lysates were normalized for protein content. JNK was affinity purified from 50-100 μg of cell lysate by the addition of 10 ul of GST-Jun sepharose slurry (2 μg GST-Jun). Binding to GST-Jun efficiently isolates the two major forms of JNK (p45 and p55) and under the conditions used JNK isolation was linear for 10-250 μg of cell lysate. The lysates were rotated at 4° C. for 1-3 h. Beads were washed twice in lysis buffer and then twice in PAN (10 mM PIPES, pH 7.0, 100 mM NaCl, 21 μg/ml aprotinin). Kinase reactions were carried out at 30° C. for 15 min in 20 mM Hepes pH 7.2, 20 mM β-glycerophosphate, 10 mM p-nitrophenyl phosphate, 10 mM MgCl2, 1 mM dithiothreitol, 50 μm sodium vanadate, 10 μCi γ^32P-ATP 4300 Ci/mmole. The kinase reaction was linear from 0-30 min. MAPK Assay MAPK activity was measured exactly as described previously (Gardner, A. M., et al. (1994) Meth. Enzymol. 238:258-270) with the exception that MonoQ FPLC fractionation was replaced by step elution from a DEAE-Sephacel column using 0.5 M NaCl in loading buffer. The eluate was assayed in triplicate using the epidermal growth factor receptor 662-681 peptide (EGFR662-681) as a selective substrate for MAPK activity (Heasley, L. E., et al. (1994) American Journal of Physiology (Renal Fluid Electrolyte Physiol. 36) 267:F366-F373). […] Cells were lysed by scraping in ice cold RIPA buffer (50 mM Tris-HCl, pH 7.2, 150 mM NaCl, 0.1% SDS, 0.5% sodium deoxycholate, 1.0% Triton X-100, 10 mM sodium pyrophosphate, 25 mM β-glycerophosphate, 2 mM sodium vanadate, 2.1 μg/ml aprotinin) and the nuclei were pelletted. […]

For another test, the system named is p42/p44 MAPK. Briefly: MAPK assay (DEAE-Sephacel, EGFR662-681 peptide) in L929 cells. The format is cell-based, murine. The following applies: L929 cells. As for the experimental part:
as §1
FIG. 26 depicts the activation of MAPK by bFGF in L929 cells. Serum starved L929 cells were stimulated for 10 min with the indicated concentration of bFGF.
as §2

Another test concerns Swiss 3T3 cells. Put plainly: MEKKCOOH-induced cell death after nuclear microinjection of expression plasmids. The format is cell-based. As for the experimental part:
Swiss 3T3 and REF52 cells were plated on acid-washed glass cover slips in Dulbecco's Modified Eagle's Medium (DMEM) and 10% bovine calf serum (BCS) or newborn calf serum (NCS). Cells were placed in DMEM/0.1% calf serum for overnight incubation prior to microinjection and used for injection at 50-70% confluence. Injections were performed with an Eppendorf automated microinjection system with needles pulled from glass capillaries on a vertical pipette puller (Kopf, Tujunga, Calif.). Cells were injected with pCMVβ-gal in the presence or absence of pCMV5MEKKCOOH or pCMV5BxBRaf at 20-100 ng/μl for each expression plasmid in 100 mM KC1, 5 mM NaPO4, pH 7.3. Following injection cells were placed in 1% NCS for 12-18 hr (Swiss 3T3) or 42 hr (REF52) prior to fixation with paraformaldehyde and staining. Similar results were obtained when cells were placed in 10% NCS after microinjection. Propidium iodide ([…]) was used to stain DNA. X-Gal reactions were performed for six hr.
Swiss 3T3 cells were microinjected with 100 ng/μl pCMVβ-gal and 20 ng/μl pCMV5MEKKCOOH. To label free DNA ends fixed and rehydrated cells were incubated with terminal deoxytransferase (TDT) and 10 nM biotin-dUTP following the manufacturer's instructions (Boehringer-Mannheim). Cells were stained with FITC-streptavidin to label DNA fragments. β-gal was detected using rabbit anti-p-gal antibody (Cappel Labs) and a rhodamine-labeled goat anti-rabbit antibody (Cappel Labs).
Seventeen hours after injection cells were fixed and stained for, β-galactosidase activity with X-Gal. Injected cells attached to the coverslip were scored as positive for cell death when they were highly condensed, small round cells.

The subject of the next test is GST-Ras^V12. Briefly: Direct binding of purified MEKKCOOH-His to GST-Ras^V12, read by phosphorylation of kinase inactive MEK1. Conditions: 100 μM peptide, pre-incubation 1 hr at 4° C. From the text:
A construct encoding the kinase domain of a Rat MEKK1 cDNA (95% identical to mouse MEKK1) with a N-terminal hexahistidine tag (referred to herein as MEKKCOOH-His; provided by Dr. Melanie Cobb, Department of Pharmacology, University of Texas Southwestern Medical School, Dallas, Tex.) was expressed in bacteria and soluble active enzyme was purified on Ni2+-NTA agarose according to the method generally described in Gardner et al. (Methods of Enzymology 238:258-270, 1994) Purified recombinant MEKKCOOH-His was incubated with either GST or GST-Ras^V12 in PAN buffer (10 mM PIPES [pH 7.0], 100 mM NaCl, 0.2 U/ml aprotinin) for 1 hr at 4° C. The agarose beads were pelleted and washed 3 times in PAN buffer. […] To test the direct interaction of MEKK1 with the effector domain of Ras, samples were prepared by pre-incubating the agarose beads with either 100 μM of Ras peptide consisting of residues 17-42 of H-Ras or 100 μM of Ras control peptide ([D-Arg^1,D-Phe^5,DTrp^7,9,Leu^11] substance P peptide for 1 hr at 4° C. prior to addition of the MEK1 substrate. A control reaction containing wild-type MEKK1 which autophosphorylates, served as a marker for the MEKK1 substrate. Reactions were terminated by addition of 5× Laemmlei SDS sample buffer, boiled and resolved by SDS-PAGE.

[1] abbreviates: 100 ng/μl plasmids, seventeen hours after injection, X-Gal.

For the compound “N17 Ras: Dominant negative Ha-ras (Asn 17), inhibitory Ras [reference compound]”, the “effect on activation of MEKK by EGF” value in the test on 98 kD PC12 cell MEKK (PC12 cells, EGF 30 ng/ml 5 minutes) is “inhibited the activation of MEKK by EGF”. Moreover, the “effect on activation of Raf-B by EGF” value in the test on Raf-B is given as “greatly reduced”. The “effect on TNFα induced apoptosis” value in the test with L929 cells (5 ng/ml TNFα) is “did not affect”. Also, in the test on L929 cells (TNFα plus bFGF), the “effect on ability of bFGF to protect against TNFα-mediated cell death” value is listed as “markedly inhibit”. The “effect on TNFα stimulation of JNK” value in the test on JNK was “had no effect on TNF stimulation of JNK”. The “effect on bFGF stimulation of MAPK activity” value with p42/p44 MAPK is “significantly blunted bFGF stimulation of MAPK”.

Regarding β-gal [reference compound], in the test on Swiss 3T3 cells (setting [1]), the “Condensed Cells (number)” value is reported as 4 and the “Condensed Cells (percent of cells injected)” value is reported as “(1%)”. In addition, the “injected cells with an altered morphology” value in the test on Swiss 3T3 cells (48-72 hours post-injection) is recorded as less than 1%.

On to “[D-Arg^1,D-Phe^5,D-Trp^7,9,Leu^11] substance P peptide [reference compound]”, for which the “effect on binding of GST-Ras^V12(GTPγS) agarose to MEKKCOOH-His” value in the test on GST-Ras^V12 was “able to bind”.

Turning to “Ras effector peptide: Ras peptide consisting of residues 17-42 of H-Ras (SALTIQLIQNHFVDEYDPTIEDSYRK; UniProt P01112 17-42, looked up, fragment)”, in the test with GST-Ras^V12, the “effect on binding of GST-Ras^V12(GTPγS) agarose to MEKKCOOH-His” value was “prevented the binding”.

`CCCCCCCCCCCCCC(=O)O[C@@H]1[C@@H](C)[C@@]2(O)[C@@H](C=C(CO)C[C@]3(O)C(=O)C(C)=C[C@@H]23)[C@H]2C(C)(C)[C@]12OC(C)=O` [TPA, reference compound]: the “MEKK activity after stimulation (in words)” value in the test with 98 kD PC12 cell MEKK is on record as “also activated MEKK, although to a lesser degree than EGF”.

As to NGF: Nerve growth factor, in the test on 98 kD PC12 cell MEKK, the “MEKK activity after stimulation (in words)” value was “slight increase in MEKK activity; also recorded: also activated MEKK, although to a lesser degree than EGF”.
